Reference: patent US8158646B2, “Antifungal and antiparasitic indoloquinoline derivates” (Florida Agricultural and Mechanical University, priority 2006, dated 2012)
Values after ≈ are worked out from the molar mass of the structure shown. Where two headings read alike, the source gives them in different places. Marks after values point to notes of the source that are not given here.

Legend:
[1] = test system: Aspergillus fumigatus ATCC 90906; experiment: Antimicrobial susceptibility testing, Af; assay type: cell-based; settings: ATCC90906, read-out: IC50 Af
Description: (§1) Compounds were evaluated in vitro against a panel of microorganisms, including Candida albicans ATCC 90028 (Ca), C. krusei ATCC 6258 (Ck), Cryptococcus neoformans ATCC 90113 (Cn), Staphylococcus aureus ATCC 29213 (Sa), methicillin-resistant S. aureus ATCC 43300 (MRSA), Pseudomonas aeruginosa ATCC 27853 (Pa), Aspergilllus fumigatus ATCC 90906 (Aj), and Mycobacterium intracellulare ATCC 23068 (Mi) as previously reported [Guoyi, M.; Khan, S.; Jacob, M. R; Tekwani, B. L.; Li, Z.; Pasco, D. S.; Walker, L. A.; Khan, 1. A.; Antimicrob Agents Chemother, 2004, 48, 4450-4452]. All organisms were obtained from the American Type Culture Collection (Manassas, Va.). Susceptibility testing was performed using a modified version of the NCCLS methods [a) National Committee for Clinical Laboratory Standards. 2000. Methods for dilution antimicrobial susceptibility tests for bacteria that grow aerobically. M7-A5. National Committee for Clinical Laboratory Standards, Wayne, Pa. b) National Committee for Clinical Laboratory Standards, 1997, Reference method for broth dilution antifungal susceptibility testing of yeasts. Approved standard M27-A. National Committee for Clinical Laboratory Standards, Wayne, Pa. c) National Committee for Clinical Laboratory Standards. 2000. Susceptibility testing of mycobacteria, nocardia, and other aerobic actinomycetes, 2nd ed. Tentative standard M24- T2. National Committee for Clinical Laboratory Standards, Wayne, Pa.] for all organisms except for M intracellulare, for which the modified Alamar blue procedure described by Franzblau et al [1998. J Clin Microbiol, 36, 362-366] was followed. Briefly, samples (dissolved in DMSO) were serially diluted by using 0.9% saline and transferred in duplicate to 96-well microplates. Microbial inocula were prepared after comparison of the absorbance (at 630 nm) of cell suspensions to the 0.5 McFarland standard and dilution of the suspensions in broth (Sabouraud dextrose and cation-adjusted Mueller-Hinton broth [Difco] for the fungi and bacteria, respectively, and 5% Alamar blue [BioSource international] in Middlebrook 7H9 broth with oleic acid-albumin-dextrose-catalase enrichment for M intracellulare) to afford recommended inoculum sizes. Microbial inocula were added to the samples to achieve a final volume of 200 μl and final sample concentrations starting with 100 μg/ml. Growth, solvent, and medium controls were included on each test plate. The plates were read at either 630 nm or excitation and emission wavelengths of 544 and 590 nm (for Mi) prior to and after incubation. Percent growth was calculated and plotted with the concentration tested to afford the concentration that inhibits 50% of growth (IC50). […]

C. krusei ATCC 6258 = experiment: Antimicrobial susceptibility testing, Ck; assay type: cell-based, Candida krusei; settings: Pichia kudriavzevii
Description: as §1, with “National Committee for Clinical Laboratory Standards, Wayne, Pa.] for all organisms except for M intracellulare, for which the modified Alamar blue procedure described by Franzblau et al [1998. J Clin Microbiol, 36, 362-366] was followed. Briefly, samples (dissolved in DMSO) were serially diluted by using 0.9% saline and transferred in duplicate to 96-well microplates.” left out, “Microbial inocula were added to the samples to achieve a final volume of 200 μl and final sample concentrations starting with 100 μg/ml. Growth, solvent, and medium controls were included on each test plate.” left out, “incubation.” for “incubation. Percent growth was calculated and plotted with the concentration tested to afford the concentration that inhibits 50% of growth (IC50).”

[2] = test system: methicillin-resistant S. aureus ATCC 43300; experiment: Antimicrobial susceptibility testing, MRSA; assay type: cell-based, Staphylococcus aureus; settings: read-out: IC50 MRSA
Description: as §1

[3] = test system: Mycobacterium intracellulare ATCC 23068; experiment: Modified Alamar blue procedure, Mi; assay type: cell-based; settings: ATCC23068, read-out: IC50 Mi
Description: as §1

[4] = test system: Plasmodium falciparum D6 Clone; experiment: Antimalarial testing, D6 clone; assay type: cell-based; settings: for IC50: Plasmodium falciparum; for SI (D6): SI = IC50 (vero cells)/IC50 (Pf)
Description: (§2) All organisms were obtained from the American Type Culture Collection (Manassas, Va.). Susceptibility testing was performed using a modified version of the NCCLS methods [a) National Committee for Clinical Laboratory Standards. 2000. Methods for dilution antimicrobial susceptibility tests for bacteria that grow aerobically. M7-A5. […] Approved standard M27-A. National Committee for Clinical Laboratory Standards, Wayne, Pa. c) National Committee for Clinical Laboratory Standards. 2000. Susceptibility testing of mycobacteria, nocardia, and other aerobic actinomycetes, 2nd ed. Tentative standard M24- T2. […] Briefly, samples (dissolved in DMSO) were serially diluted by using 0.9% saline and transferred in duplicate to 96-well microplates. Microbial inocula were prepared after comparison of the absorbance (at 630 nm) of cell suspensions to the 0.5 McFarland standard and dilution of the suspensions in broth (Sabouraud dextrose and cation-adjusted Mueller-Hinton broth [Difco] for the fungi and bacteria, respectively, and 5% Alamar blue [BioSource international] in Middlebrook 7H9 broth with oleic acid-albumin-dextrose-catalase enrichment for M intracellulare) to afford recommended inoculum sizes. Microbial inocula were added to the samples to achieve a final volume of 200 μl and final sample concentrations starting with 100 μg/ml. Growth, solvent, and medium controls were included on each test plate. […] Antimalarial and cytotoxicity testing were conducted in a similar manner as previously reported [a) Muhammad, 1.; Bedir, E.; Khan, S. I.; Tekwani, B. L.; Khan, I. A.; Takamatsu, S.; Pelletier, 1.; Walker, L. A. J Nat Prod.

[5] = test system: Plasmodium falciparum W2 Clone; experiment: Antimalarial testing, W2 clone; assay type: cell-based; settings: for IC50: Plasmodium falciparum; for SI (W2): SI = IC50 (vero cells)/IC50 (Pf)
Description: (§3) Compounds were evaluated in vitro against a panel of microorganisms, including Candida albicans ATCC 90028 (Ca), C. krusei ATCC 6258 (Ck), Cryptococcus neoformans ATCC 90113 (Cn), Staphylococcus aureus ATCC 29213 (Sa), methicillin-resistant S. aureus ATCC 43300 (MRSA), Pseudomonas aeruginosa ATCC 27853 (Pa), Aspergilllus fumigatus ATCC 90906 (Aj), and Mycobacterium intracellulare ATCC 23068 (Mi) as previously reported [Guoyi, M.; Khan, S.; Jacob, M. R; Tekwani, B. L.; Li, Z.; Pasco, D. S.; Walker, L. A.; Khan, 1. A.; Antimicrob Agents Chemother, 2004, 48, 4450-4452]. All organisms were obtained from the American Type Culture Collection (Manassas, Va.). Susceptibility testing was performed using a modified version of the NCCLS methods [a) National Committee for Clinical Laboratory Standards. 2000. Methods for dilution antimicrobial susceptibility tests for bacteria that grow aerobically. M7-A5. National Committee for Clinical Laboratory Standards, Wayne, Pa. b) National Committee for Clinical Laboratory Standards, 1997, Reference method for broth dilution antifungal susceptibility testing of yeasts. Approved standard M27-A. National Committee for Clinical Laboratory Standards, Wayne, Pa. c) National Committee for Clinical Laboratory Standards. 2000. Susceptibility testing of mycobacteria, nocardia, and other aerobic actinomycetes, 2nd ed. Tentative standard M24- T2. National Committee for Clinical Laboratory Standards, Wayne, Pa.] for all organisms except for M intracellulare, for which the modified Alamar blue procedure described by Franzblau et al [1998. J Clin Microbiol, 36, 362-366] was followed. Briefly, samples (dissolved in DMSO) were serially diluted by using 0.9% saline and transferred in duplicate to 96-well microplates. Microbial inocula were prepared after comparison of the absorbance (at 630 nm) of cell suspensions to the 0.5 McFarland standard and dilution of the suspensions in broth (Sabouraud dextrose and cation-adjusted Mueller-Hinton broth [Difco] for the fungi and bacteria, respectively, and 5% Alamar blue [BioSource international] in Middlebrook 7H9 broth with oleic acid-albumin-dextrose-catalase enrichment for M intracellulare) to afford recommended inoculum sizes. Microbial inocula were added to the samples to achieve a final volume of 200 μl and final sample concentrations starting with 100 μg/ml. Growth, solvent, and medium controls were included on each test plate. The plates were read at either 630 nm or excitation and emission wavelengths of 544 and 590 nm (for Mi) prior to and after incubation. Percent growth was calculated and plotted with the concentration tested to afford the concentration that inhibits 50% of growth (IC50). Antimalarial and cytotoxicity testing were conducted in a similar manner as previously reported [a) Muhammad, 1.; Bedir, E.; Khan, S. I.; Tekwani, B. L.; Khan, I. A.; Takamatsu, S.; Pelletier, 1.; Walker, L. A. J Nat Prod. 2004, 67, 772-7. b) Muhammad, 1.; Dunbar, D. C.; Khan, S. 1.; Tekwani, B. L.; Bedir, E.; Takamatsu, S.; Ferreira, D, Walker L A., J Nat Prod. 2003, 66, 962-7].

Vero cells = experiment: Cytotoxicity to mammalian cells (Vero); assay type: cell-based
Description: as §2

[6] = test system: Cryptococcus neoformans ATCC 90113; experiment: Antifungal susceptibility testing (modified NCCLS), Cn; assay type: cell-based; settings: for IC50 Cn: NA not defined in Table 1
Description: as §3

[7] = test system: Candida albicans ATCC 90028; experiment: Antifungal susceptibility testing (modified NCCLS), Ca; assay type: cell-based; settings: for IC50 Ca: NA not defined in Table 1
Description: as §3

[8] = test system: Pseudomonas aeruginosa ATCC 27853; experiment: Antimicrobial susceptibility testing, Pa; assay type: cell-based; settings: ATCC27853, NA = Not active up to 20 μg/ml
Description: (§4) Compounds were evaluated in vitro against a panel of microorganisms, including Candida albicans ATCC 90028 (Ca), C. krusei ATCC 6258 (Ck), Cryptococcus neoformans ATCC 90113 (Cn), Staphylococcus aureus ATCC 29213 (Sa), methicillin-resistant S. aureus ATCC 43300 (MRSA), Pseudomonas aeruginosa ATCC 27853 (Pa), Aspergilllus fumigatus ATCC 90906 (Aj), and Mycobacterium intracellulare ATCC 23068 (Mi) as previously reported [Guoyi, M.; Khan, S.; Jacob, M. R; Tekwani, B. L.; Li, Z.; Pasco, D. S.; Walker, L. A.; Khan, 1. A.; Antimicrob Agents Chemother, 2004, 48, 4450-4452]. All organisms were obtained from the American Type Culture Collection (Manassas, Va.). Susceptibility testing was performed using a modified version of the NCCLS methods [a) National Committee for Clinical Laboratory Standards. 2000. […] Microbial inocula were prepared after comparison of the absorbance (at 630 nm) of cell suspensions to the 0.5 McFarland standard and dilution of the suspensions in broth (Sabouraud dextrose and cation-adjusted Mueller-Hinton broth [Difco] for the fungi and bacteria, respectively, and 5% Alamar blue [BioSource international] in Middlebrook 7H9 broth with oleic acid-albumin-dextrose-catalase enrichment for M intracellulare) to afford recommended inoculum sizes. […] The plates were read at either 630 nm or excitation and emission wavelengths of 544 and 590 nm (for Mi) prior to and after incubation. […]

[9] = test system: Staphylococcus aureus ATCC 29213; experiment: Antimicrobial susceptibility testing, Sa; assay type: cell-based; settings: ATCC29213
Description: as §4

[10] = ATCC90113, NA not defined in Table 1, read-out: IC50 Cn
[11] = ATCC90028, NA not defined in Table 1, read-out: IC50 Ca
[12] = Methicillin-Resistant Staphylococcus aureus
[13] = D6 Clone, read-out: Plasmodium falciparum IC50 Pf (D6)
[14] = W2 Clone, NA = Not active up to 20 μg/ml, read-out: Plasmodium falciparum IC50 Pf (W2)

Row | Compound | IC50 [1] | IC50 [3] | IC50 [6, 10] | IC50 [7, 11] | IC50 [2, 12] | IC50 [4, 13] | IC50 [5, 14] | SI (D6) ([4]; D6 Clone) | SI (W2) ([5]; W2 Clone) | IC50 Cn [6] | IC50 Ca [7] | Cytotoxicity (Vero) TC50 (Vero cells; African green monkey) | no cytotoxicity up to (concentration) (Vero cells; African green monkey) | further results
1 | Cn1c2c3ccccc3nc-2cc2ccccc21 [Compound 2b, cryptolepine, reference compound] | > 20 µg/mL | 15 µg/mL (≈ 64.6 µM) |  |  |  |  |  | 54 | 18.5 |  |  |  |  | IC50 (C. krusei ATCC 6258; ATCC6258, read-out: IC50 Ck): 4.5 µg/mL (≈ 19.4 µM); IC50 ([2]; Staphylococcus aureus): 20 µg/mL (≈ 86.1 µM); IC50 ([4]; D6, read-out: Plasmodium falciparum IC50 Pf (D6)): 0.044 µg/mL (≈ 0.189 µM); IC50 ([5]; W2, read-out: Plasmodium falciparum IC50 Pf (W2)): 0.13 µg/mL (≈ 0.56 µM); Cytotoxicity (Vero) TC50 (Vero cells; Vero cells, NC = No Cytotoxicity observed up to 5 μg/ml): 2.4 µg/mL
2 | Cn1c2ccccc2c2c1cc1ccccc1[n+]2CCCCCc1ccccc1.[Br-] [Compound 7b] |  |  |  |  |  |  |  |  |  | 4.3 µg/mL | 4.3 µg/mL |  |  | 
3 | C[n+]1c(-c2ccccc2)ccc2ccccc21 [Compound 8a] |  |  |  |  |  |  |  |  |  |  |  |  |  | IC50 ([6]; ATCC90113, read-out: IC50 Cn): 43 µg/mL; IC50 ([7]; ATCC90028, read-out: IC50 Ca): 180 µg/mL; melting point: 196 to 198 °C
4 | cryptolepine [Compound 2b, reference compound] |  |  |  |  |  |  |  |  |  | 15.6^d μg/ml | 0.8 to 180 µg/mL |  |  | 

Second part, led by results:

Row | IC50 [1] | IC50 [3] | IC50 [6, 10] | IC50 [7, 11] | IC50 [2, 12] | IC50 [4, 13] | IC50 [5, 14] | Compound | SI (D6) ([4]; D6 Clone) | SI (W2) ([5]; W2 Clone) | IC50 Cn [6] | IC50 Ca [7] | Cytotoxicity (Vero) TC50 (Vero cells; African green monkey) | no cytotoxicity up to (concentration) (Vero cells; African green monkey) | further results
5 | 20 µg/mL | 7 µg/mL | 1.5 µg/mL | > 50 µg/mL | 3 µg/mL | 1.3 µg/mL | 1 µg/mL | c1ccc2c(c1)cc1[nH]c3ccccc3c1[n+]2CCCCC[n+]1c2ccccc2cc2[nH]c3ccccc3c21 [Compound 10] | >18.3 | >23.8 |  |  | >23.8 µg/mL | > 23.8 µg/mL | IC50 [8]: 1.5 µg/mL; IC50 [9]: 3 µg/mL
6 | 20 µg/mL | 15 µg/mL | 2 µg/mL | 2 µg/mL | 6 µg/mL | 0.26 µg/mL | 0.14 µg/mL | C[n+]1c2ccccc2cc2c1c1ccccc1n2CCCCCn1c2ccccc2c2c1cc1ccccc1[n+]2C [Compound 12] | >91.5 | >170 |  |  | >23.8 µg/mL | > 23.8 µg/mL | IC50 (C. krusei ATCC 6258; ATCC6258, Candida krusei, read-out: IC50 Ck): 15 µg/mL
